Broadly, the Kd is the concentration at which binding is half-saturated.

In patent publication US20140359899A1 (priority 2011, published 2014) one finds Kd and Maltose efflux data, which are given here for two compounds.

In test [1] the target is FRET sucrose sensor FLIPsuc90μΔ1V. Conditions: detection level of the sucrose sensor; cited from earlier work.
For a further test, the target named is T1, AtSWEET12 (Arabidopsis thaliana, UniProt O82587).
T1 construct: Primers for the full length ORF of AtSWEET11 (AtSWT11FattB1 and AtSWT11attB2) or AtSWEET12; expressed in transfected cells; host or cells: Xenopus oocytes injected with capped cRNA from pOO2-GW
Put plainly: Oocyte efflux assay: [14C]-sugar efflux from Xenopus oocytes expressing AtSWEET12. Type of test: cell-based. The conditions noted are these: FIG. 4D.

Each structure is given as a SMILES string.

T1 sequence (O82587 whole entry): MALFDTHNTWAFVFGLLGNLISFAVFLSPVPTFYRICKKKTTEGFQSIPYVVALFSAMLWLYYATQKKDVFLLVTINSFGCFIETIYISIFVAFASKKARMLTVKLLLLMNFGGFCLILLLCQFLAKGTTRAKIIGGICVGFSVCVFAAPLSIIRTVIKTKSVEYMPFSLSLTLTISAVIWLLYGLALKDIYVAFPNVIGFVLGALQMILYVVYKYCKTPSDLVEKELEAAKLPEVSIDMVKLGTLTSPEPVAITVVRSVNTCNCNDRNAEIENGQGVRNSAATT

For the compound `OC[C@H]1O[C@@](CO)(O[C@H]2O[C@H](CO)[C@@H](O)[C@H](O)[C@H]2O)[C@@H](O)[C@@H]1O` [sucrose], the Kd in test [1] is around 90 µM.
As for `OC[C@H]1O[C@H](O[C@H]2[C@H](O)[C@@H](O)C(O)O[C@@H]2CO)[C@H](O)[C@@H](O)[C@@H]1O` (mixture of isomers) [Maltose, maltose], the Maltose efflux entry on AtSWEET12 is on record as “undetectable”.
